Patent publication US20070053831A1, “Methods for binding agents to b-amyloid plaques” (priority 2003, published 2007)
Blank lines part the entries; values can stand above or below the molecule they belong to.

Assays:
[1] = test system: amyloid plaques; conditions: cited from earlier work
[2] = molecular target: T1, β-amyloid (1-40) fibrils (Homo sapiens, UniProt P05067); test: In vitro competition assay with [18F]FDDNP on synthetic β-amyloid (1-40) fibrils (vacuum filtration); assay type: binding; conditions: for dose dependent decrease in the specific binding of [18F]FDDNP: 0.1 pM to 83 μM of nonradioactive agent; for Ki: synthetic β-amyloid (1-40) fibrils, 1 h, PBS pH 7.4, ±SD, read-out: Ki (decrease in the binding of [18F]FDDNP)
T1 construct: β-amyloid (1-40) (Biosource, Camarillo, Calif.) fibrils were prepared; purchased Biosource, Camarillo, Calif; host or cells: synthetic peptide
T1 sequence (P05067 672-711 limits assumed): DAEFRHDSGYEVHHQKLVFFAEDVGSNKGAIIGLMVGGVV
Protocol: Potential therapeutic agents were evaluated to determine their ability to bind to β-amyloid fibrils. • Amyloid (1-40) fibril formation. β-amyloid (1-40) (Biosource, Camarillo, Calif.) fibrils were prepared. 0.5 mg of β-amyloid (1-40) was dissolved in 1 mL PBS, pH 7.4 and mixed with a magnetic stir bar for 3 days at 37° C. resulting in a visibly cloudy solution. Fibrils were used immediately after their production was confirmed. The production of 13-amyloid fibrils was confirmed by imaging with a Jeol 100CX transmission electron microscope (Jeol, Peabody, Mass.). A 5 μL drop from a fibril solution was allowed to settle for 30 s on a treated copper grid before being washed away with a drop of 2% uranyl acetate solution. Finally, an additional drop of 2% uranyl acetate was added to the grid to negatively stain the fibrils. Fibrils were used immediately after their production was confirmed. Additional tests for fibril formation using Congo red (CR, Sigma) and Thioflavine T (TT, Sigma) were performed, as well. The absence of fibrils in the filtrate in the in vitro competition assays described below was determined by the same tests using CR. In vitro competition assays with [^18[…] against NSAIDs and charge amyloid dyes. Solutions of nonradioactive agents, namely (S)-naproxen (Sigma), (R)-ibuprofen (BIOMOL, Plymouth Meeting, Pa.), (S)-ibuprofen (Sigma), diclofenac (Sigma), CR and TT, were prepared fresh for each radioactive competition assay. APFF glass fiber filters (0.7 μm particle retention; Millipore, Bedford, Mass.) were used in a 1225 sampling manifold (Millipore) that was modified with stainless steel support screens (Millipore) and glass sample chambers. Vacuum filtration involved 0.865 μg/mL of in vitro fibrils of synthetic β-amyloid (1-40) and 37 MBq/mL of [^18[…] incubated for 1 h in PBS, pH 7.4 (1% ethanol) with various concentrations of the nonradioactive agents with the range of 0.1 pM to 83 μM. Each filter was then washed twice with 3 ml of PBS, pH 7.4. The radioactivity retained by the filters was measured and decay-corrected to a common reference time with a Packard Cobra II Auto-Gamma gamma counter (Packard, Meriden, Conn.). […] All competition assays were performed in triplicate. Competition results were analyzed and then Ki values calculated using the Ligand Binding Module for SigmaPlot 2001 (SPSS, Chicago, Ill.).

[3] = test system: senile plaques; test: Digital autoradiography with [18F]FDDNP of AD brain specimens pretreated with nonradioactive agents; assay type: binding, human
Protocol: Brain specimens from a postmortem-diagnosed definite AD patient were treated. Briefly, formalin-treated, cryoprotected brain specimens were sectioned 70 μm thick coronally mounted on gelatine-coated glass slides, allowed to dry, and were defatted for 40 min in xylene prior to rinsing of the tissue with ethanol. Finally, lipofuscin autofluorescence in some brain specimens was quenched prior to staining using 10 mM CuCl2 in 50 mM ammonium acetate buffer, pH 5. The quenching determined the origin of lipofuscin fluorescence in brain specimens. […] Pretreated and cryosections with no competitor were incubated for 25 min at room temperature with […] of [^18[…] dissolved in 10 mL of 1% ethanol in 0.9% saline (w/v) per cryosection. Following incubation, the sections were optimally washed with water (30 sec); 60% 2-methyl-2-butanol (3 min; Sigma) agitated at 40 RPMs on a Junior Orbit Shaker (Lab-Line Instruments, Melrose Park, Ill.) for differentiation (Bancroft and Stevens, 1990); and then water (30 sec). The sections were dried on a warm hot plate with a steady stream of warm air, exposed to β^+-sensitive phosphor plates for 40 min Fuji Film Medical Systems USA, Stamford, Conn.), and scanned with a FUJI BAS 5000 Phosphorimager (Fuji) at a resolution of 25 μm, as described previously ([…] et al., 2001a). […] FIG. 2Q) in the autoradiograms. Autoradiography was carried out at least in triplicate for each competitor. Statistical analysis of the autoradiograms involved one-way ANOVA with Dunnett's post test using Prism 3.02 (GraphPad, San Diego, Calif.) to compare the differences in the ratio of gray matter-to-white matter (FIG. 2Q) radioactivity of [^18]FDDNP in autoradiograms pretreated with the nonradioactive agents and without pretreatment. Unpaired t-tests were performed to compare the difference of measured [^18[…] radioactivity per area of tissue (Bq/mm^2) in the gray and white matter of each autoradiogram. The same brain specimens used for autoradiography were observed using fluorescence microscopy. Tissues were mounted with Vectashield (Vector, Burlingame, Calif.) and observed with a Nikon Labophot fluorescence microscope (Nikon USA, Melville, N.Y.) with a FITC filter set.

[4] = test system: β-amyloid plaques and neurofibrillary tangles; test: PET with [F-18]FDDNP in patients; assay type: in vivo, human
Protocol: A patient was placed in a tomograph to obtain brain dynamic PET images. 8.0 mCi of 2-(1.1-dicyanopropen-2-yl)-6-(2-[^18F]-fluoroethyl)-methylamino)-naphthalene ([F18]FDDNP) (specific activity: 5-12 Ci/micromol; mass: ˜1 nanomol), prepared as described in Example 1(f), were injected intravenously into the arm of the patient. Dynamic acquisition data of brain images were recorded simultaneously in forty-seven brain planes for two hours.
Labeling and detection of human β-amyloid plaques and neurofibrillary tangles in vivo were conducted using the following procedures. Ten human subjects, seven Alzheimer's diseased patients (ages 71 to 80) and three control patients (ages 62 to 82) were studied. The patients were positioned supine in an EXACT HR+962 tomograph (Siemens-CTI, Knoxville, Tenn.) with the imaging plane parallel to the orbito-meatal line. Venous catheterization was performed, and then [F-18]FDDNP (5-10 mCi) in human serum albumin (25%) was administered as a bolus via the venous catheter. Sequential emission scans were obtained beginning immediately after [F-18]FDDNP administration using the following scan sequence: six 30 second scans, four 3 minute scans, five 10 minute scans, and three 20 minute scans. Rapid venous blood sampling was performed via the indwelling catheter in two subjects for input function determination and plasma metabolite analysis.
The residence time shown is in reference to that in the pons, an area known to have limited involvement in Alzheimer's disease pathology. The residence time was calculated from the clearance rates of the tracer in affected regions of interest (ROI) and in the pons as: Residence time=[1/clearance rate for affected ROI]−[1/clearance rate for pons] Separate ROIs were defined in entorhinal cortex, hippocampus, lateral temporal cortex and pons. The region with the slowest clearance rate was used as the affected ROI in the calculation of the residence time shown in FIG. 4.

[5] = test system: neurofibrillary tangles, amyloid peptides, and diffuse amyloid; test: In vitro fluorescence labeling of Alzheimer's disease brain specimens with DDNP and [F-18]FDDNP; design: species or system human; conditions: all Alzheimer's disease brain specimens
[6] = test system: amyloid plaques and tangles; test: DDNP fluorescence labeling of brain tissue sections in vitro; design: species or system human
Protocol: (§1) A 2.1 mg/mL DDNP stock solution was prepared, which was adjusted to 8 mM in 100% ethanol. A DDNP working solution was prepared by diluting the stock solution with distilled water in a ratio of 1:100-1000 (stock solution:distilled water).
β-amyloid 250 μM (1.25 mg/mL in distilled water) was aggregated at 37° C. for 48 hours. 5 μL were smeared on slides, air-dried and then rehydrated with distilled water. Alternatively, Aβ-positive brain tissue sections were rehydrated with distilled water. DDNP working solution was applied to each slide for 30 minutes at room temperature. The slides were washed three times for five minutes with distilled water. The slides were coverslipped with fluorescent protectant mounding media (Vectashield™, available Vector Labs., Burlingame, Calif.) and observed under a fluorescence microscope with a thioflavin S or FITC filter.

[7] = molecular target: T2, β-amyloid 1-40 injected into rat cortex (Homo sapiens, UniProt P05067); test: DDNP labeling of β-amyloid injected into rat brain in vivo; conditions: rats, FIGS. 2A to 2E
T2 construct: unilateral stereotaxic injection of 3 μg of aggregated β-amyloid 1-40 into rat cortex; host or cells: exogenous peptide fibrils injected into rat brain
T2 sequence (P05067 672-711 limits assumed): as above
Protocol: β-amyloid 250 μM (1.25 mg/mL in distilled water) was aggregated at 37° C. for 48 hours to produce fibrils confirmed by smears. Three rats were anesthetized. 3 μL of a solution of Aβ fibrils (1.25 μg/μL) were injected unilaterally into the cortex of each rat (Bregma 0, AP-4.1 mm, ML+2.0 mm, DV-3.1 mm). Then 3 μL of phosphate buffered saline (PBS) were injected into the contralateral side of each rat brain as a vehicle control. After injection, the needle remained for 5 minutes to prevent reflux, and then the cranial hole was sealed with bone wax. Eight days after β-amyloid injection into the rat brains, the rats were injected with 10 microliters of DDNP working solution (320 micromolar) prepared by diluting DDNP stock solution into 1.5% BSA (bovine serum albumin) in phosphate buffered saline, pH 7.2).
After one hour, the rats were cardiac perfused with PLP fixative (4% paraformaldehyde, 1% lysin in 0.05 M phosphate buffer, pH 7.4). Additional immersion fixation of rat brain was at 4° C. overnight with PLP fixative. The rat brains were washed with PBS, saturated in 10 and 20% sucrose, and snap frozen in chilled isopentane (−70° C.) with liquid nitrogen. The brains were cryostat sectioned at […] around the needle-track and directly coverslipped with glycerol and fluorescence protectant (Vectashield™).

[8] = Storage of DDNP stock solution; assay type: physicochemical; conditions: 8 mM in 100% ethanol, freezer; used at 1/100 to 1/1,000 dilutions
Protocol: as §1

[9] = AD brain specimens pretreated with 40 μM agent for 60 min
[10] = AD brain specimens pretreated with 100 nM agent for 60 min
[11] = cortex of the brain of an Alzheimer's disease patient, FIG. 1B

SMILES: O=C(O)c1cc(/N=N/c2ccc(-c3ccc(/N=N/c4ccc(O)c(C(=O)O)c4)cc3)cc2)ccc1O [Chrysamine G]
- ability to label amyloid plaques in Alzheimer's brain [1]: appears weak

- melting point: 198 to 200 °C
SMILES: CN(C)c1ccc2cc(-c3ccnc(Cl)c3C#N)ccc2c1

- melting point: 256 to 257 °C
SMILES: CN(C)c1ccc2cc(-c3ccnc(N)c3C#N)ccc2c1.O

- melting point: 210 to 212 °C
SMILES: CN(C)c1ccc2cc(-c3ccnc(SCCO)c3C#N)ccc2c1

- specific binding of [18F]FDDNP to regions of gray matter with senile plaques [3, 9]: minimal effect
SMILES: Cc1ccc2c(c1)sc(-c1ccc(N(C)C)cc1)[n+]2C.[Cl-] [TT, Thioflavine T]
- dose dependent decrease in the specific binding of [18F]FDDNP [2]: did not exhibit a dose dependent decrease

- melting point: 168 to 170 °C
SMILES: CN(C)c1ccc2cc(C(/C=C\NCCO)=C(C#N)C#N)ccc2c1

SMILES: CC(=C(C#N)C#N)c1ccc2cc(N(C)CC[18F])ccc2c1 [[F-18]FDDNP]
- estimated residence time (in reference to pons) ([4]; Alzheimer's diseased patients versus control patients, FIG. 4): different from values in control patients
- regional clearance from brain ([4]; brain areas known to accumulate β-amyloid plaques and neurofibrillary tangles): slower clearance
- crossing of the blood brain barrier ([4]; human, intravenous injection): crosses the blood brain barrier readily in proportion to blood flow
- visualization of neurofibrillary tangles, amyloid peptides, and diffuse amyloid [5]: excellent visualization

- melting point: 150 to 151 °C
SMILES: COc1nccc(-c2ccc3cc(N(C)C)ccc3c2)c1C#N

- Ki [2]: 44.4 ± 17.4 µM
- specific binding of [18F]FDDNP to regions of gray matter with senile plaques [3, 9]: significantly reduced
SMILES: CC(C)Cc1ccc([C@@H](C)C(=O)O)cc1 [(R)-ibuprofen]

- melting point: 268 to 269 °C
SMILES: CN(C)c1ccc2cc(-c3ccn4ccnc4c3C#N)ccc2c1

SMILES: CC(=C(C#N)C#N)c1ccc2cc(N(C)CCF)ccc2c1 [FDDNP]
- specific binding of [18F]FDDNP to regions of gray matter with senile plaques [3, 10]: significantly reduced

- melting point: 213 to 215 °C
SMILES: CN(C)/C=C/C(=C(C#N)C#N)c1ccc2cc(N(C)C)ccc2c1

- specific binding of [18F]FDDNP to regions of gray matter with senile plaques [3, 9]: minimal effect
SMILES: O=C(O)Cc1ccccc1Nc1c(Cl)cccc1Cl [Diclofenac, diclofenac]
- dose dependent decrease in the specific binding of [18F]FDDNP [2]: did not exhibit a dose dependent decrease

- Ki [2]: 11.3 ± 5.2 µM
- specific binding of [18F]FDDNP to regions of gray matter with senile plaques [3, 9]: significantly reduced
SMILES: CC(C)Cc1ccc([C@H](C)C(=O)O)cc1 [(S)-ibuprofen]

- Ki [2]: 0.0057 ± 0.00131 µM
- specific binding of [18F]FDDNP to regions of gray matter with senile plaques [3, 10]: significantly reduced
SMILES: COc1ccc2cc([C@H](C)C(=O)O)ccc2c1 [(S)-naproxen]

- specific binding of [18F]FDDNP to regions of gray matter with senile plaques [3, 9]: minimal effect
SMILES: Nc1c(/N=N/c2ccc(-c3ccc(/N=N/c4cc(S(=O)(=O)O)c5ccccc5c4N)cc3)cc2)cc(S(=O)(=O)O)c2ccccc12 [CR, Congo red]
- dose dependent decrease in the specific binding of [18F]FDDNP [2]: did not exhibit a dose dependent decrease

SMILES: CC(=C(C#N)C#N)c1ccc2cc(N(C)C)ccc2c1 [DDNP, 2-(1,1-dicyanopropen-2-yl)-6-dimethylaminonaphthalene]
- labeling of plaques [6, 11]: strong
- labeling of tangles [6, 11]: weak
- labeling of amyloid deposits in cryostat and paraffin sections of AD brain tissue ([6]; fluorescence microscopy): readily labeled amyloid deposits
- passage of the blood brain barrier [7]: passes the blood brain barrier
- visualization of neurofibrillary tangles, amyloid peptides, and diffuse amyloid [5]: excellent visualization
- stability of stock solution [8]: can be kept in the freezer for six months and still produce acceptable results
- melting point: 154.5 to 155 °C
